# Measurements taken from patent publication US20260266848A1, “COMPOSITIONS AND METHODS FOR DIAGNOSING AND TREATING DYSTONIA” (Duke University, priority 2023, published 2026).
# Tested on: DYT-TOR1A MEF EVs
# Assay: Quantitative LC-MS/MS proteomics of EVs from drug-treated DYT-TOR1A MEF cultures (ritonavir, salubrinal)
# Type: cell-based, mouse
# Set-up: key to RTV Corrective Direction / RTV Corrective Direction, Grwd1 / RTV Corrective Direction, Srrm2 / RTV Corrective Direction, Rbm17 / RTV Corrective Direction, Dcaf8 / RTV Corrective Direction, Edil3 / RTV Corrective Direction, Timp3 / RTV Corrective Direction, Heatr3 / RTV Corrective Direction, Brd4 / RTV Corrective Direction, P3h4 / RTV Corrective Direction, Pacsin3 / RTV Corrective Direction, Naa50 / RTV Corrective Direction, Lpar6 / RTV Corrective Direction, Ndrg1 / RTV Corrective Direction, Kntc1 / RTV Corrective Direction, Cdk11b / RTV Corrective Direction, Sumo1 / RTV Corrective Direction, Lsm4 / RTV Corrective Direction, Hmga2 / RTV Corrective Direction, Cstf1 / RTV Corrective Direction, Tes / RTV Corrective Direction, Sbno1 / RTV Corrective Direction, Unc119b / RTV Corrective Direction, Cfdp1 / RTV Corrective Direction, Sec61b: YES = protein abundance effect opposite to DYT/WT
smiles,measurement,setting,value
CC(C)c1nc(CN(C)C(=O)N[C@H](C(=O)N[C@@H](Cc2ccccc2)C[C@H](O)[C@H](Cc2ccccc2)NC(=O)OCc2cncs2)C(C)C)cs1 [ritonavir],"Absolute Cohen's d Sum (Geno + RTV), Brd4",EV protein Brd4 (Q9ESU6),6.97
same,"DYT + RTV/DYT Cohen's d, Brd4",EV protein Brd4 (Q9ESU6),3.33
same,"RTV Corrective Direction, Brd4","EV protein Brd4 (Q9ESU6), DYT + RTV vs DYT",YES
same,"Absolute Cohen's d Sum (Geno + RTV), Cdk11b",EV protein Cdk11b (P24788),6.07
same,"DYT + RTV/DYT Cohen's d, Cdk11b",EV protein Cdk11b (P24788),2.84
same,"RTV Corrective Direction, Cdk11b","EV protein Cdk11b (P24788), DYT + RTV vs DYT",YES
same,"Absolute Cohen's d Sum (Geno + RTV), Cfdp1",EV protein Cfdp1 (O88271),4.50
same,"DYT + RTV/DYT Cohen's d, Cfdp1",EV protein Cfdp1 (O88271),1.87
same,"RTV Corrective Direction, Cfdp1","EV protein Cfdp1 (O88271), DYT + RTV vs DYT",YES
same,"Absolute Cohen's d Sum (Geno + RTV), Cstf1",EV protein Cstf1 (Q99LC2),4.79
same,"DYT + RTV/DYT Cohen's d, Cstf1",EV protein Cstf1 (Q99LC2),1.81
same,"RTV Corrective Direction, Cstf1","EV protein Cstf1 (Q99LC2), DYT + RTV vs DYT",YES
same,"Absolute Cohen's d Sum (Geno + RTV), Ctdsp1",EV protein Ctdsp1 (P58466),9.37
same,"DYT + RTV/DYT Cohen's d, Ctdsp1",EV protein Ctdsp1 (P58466),−0.28
same,"DYT + RTV/DYT Cohen's d, Dcaf8",EV protein Dcaf8,3.49
same,"Absolute Cohen's d Sum (Geno + RTV), Dcaf8",EV protein Dcaf8 (Q8N7N5),7.70
same,"RTV Corrective Direction, Dcaf8","EV protein Dcaf8 (Q8N7N5), DYT + RTV vs DYT",YES
same,"Absolute Cohen's d Sum (Geno + RTV), Dnajc7",EV protein Dnajc7 (Q9QYI3),4.50
same,"DYT + RTV/DYT Cohen's d, Dnajc7",EV protein Dnajc7 (Q9QYI3),−0.67
same,"Absolute Cohen's d Sum (Geno + RTV), Drg1",EV protein Drg1 (P32233),4.38
same,"DYT + RTV/DYT Cohen's d, Drg1",EV protein Drg1 (P32233),−1.06
same,"Absolute Cohen's d Sum (Geno + RTV), Edil3",EV protein Edil3 (O35474),7.67
same,"DYT + RTV/DYT Cohen's d, Edil3",EV protein Edil3 (O35474),4.51
same,"RTV Corrective Direction, Edil3","EV protein Edil3 (O35474), DYT + RTV vs DYT",YES
same,"Absolute Cohen's d Sum (Geno + RTV), Grwd1",EV protein Grwd1 (Q810D6),8.06
same,"DYT + RTV/DYT Cohen's d, Grwd1",EV protein Grwd1 (Q810D6),2.65
same,"RTV Corrective Direction, Grwd1","EV protein Grwd1 (Q810D6), DYT + RTV vs DYT",YES
same,"Absolute Cohen's d Sum (Geno + RTV), Heatr3",EV protein Heatr3 (Q8BQM4),7.08
same,"DYT + RTV/DYT Cohen's d, Heatr3",EV protein Heatr3 (Q8BQM4),3.09
same,"RTV Corrective Direction, Heatr3","EV protein Heatr3 (Q8BQM4), DYT + RTV vs DYT",YES
same,"Absolute Cohen's d Sum (Geno + RTV), Hmga2",EV protein Hmga2 (P52927),5.34
same,"DYT + RTV/DYT Cohen's d, Hmga2",EV protein Hmga2 (P52927),1.97
same,"RTV Corrective Direction, Hmga2","EV protein Hmga2 (P52927), DYT + RTV vs DYT",YES
same,"Absolute Cohen's d Sum (Geno + RTV), Kntc1",EV protein Kntc1 (Q8C3Y4),6.09
same,"DYT + RTV/DYT Cohen's d, Kntc1",EV protein Kntc1 (Q8C3Y4),2.48
same,"RTV Corrective Direction, Kntc1","EV protein Kntc1 (Q8C3Y4), DYT + RTV vs DYT",YES
same,"Absolute Cohen's d Sum (Geno + RTV), Lpar6",EV protein Lpar6 (Q8BMC0),6.22
same,"DYT + RTV/DYT Cohen's d, Lpar6",EV protein Lpar6 (Q8BMC0),−3.03
same,"RTV Corrective Direction, Lpar6","EV protein Lpar6 (Q8BMC0), DYT + RTV vs DYT",YES
same,"Absolute Cohen's d Sum (Geno + RTV), Lsm4",EV protein Lsm4 (Q9QXA5),5.40
same,"DYT + RTV/DYT Cohen's d, Lsm4",EV protein Lsm4 (Q9QXA5),2.49
same,"RTV Corrective Direction, Lsm4","EV protein Lsm4 (Q9QXA5), DYT + RTV vs DYT",YES
same,"Absolute Cohen's d Sum (Geno + RTV), Maea",EV protein Maea (Q4VC33),3.96
same,"DYT + RTV/DYT Cohen's d, Maea",EV protein Maea (Q4VC33),−0.37
same,"Absolute Cohen's d Sum (Geno + RTV), Myo1e",EV protein Myo1e (E9Q634),5.88
same,"DYT + RTV/DYT Cohen's d, Myo1e",EV protein Myo1e (E9Q634),−1.46
same,"Absolute Cohen's d Sum (Geno + RTV), Naa50",EV protein Naa50 (Q6PGB6),6.3
same,"DYT + RTV/DYT Cohen's d, Naa50",EV protein Naa50 (Q6PGB6),1.96
same,"RTV Corrective Direction, Naa50","EV protein Naa50 (Q6PGB6), DYT + RTV vs DYT",YES
same,"Absolute Cohen's d Sum (Geno + RTV), Ndrg1",EV protein Ndrg1 (Q62433),6.19
same,"DYT + RTV/DYT Cohen's d, Ndrg1",EV protein Ndrg1 (Q62433),2.70
same,"RTV Corrective Direction, Ndrg1","EV protein Ndrg1 (Q62433), DYT + RTV vs DYT",YES
same,"Absolute Cohen's d Sum (Geno + RTV), P3h4",EV protein P3h4 (Q8K2B0),6.88
same,"DYT + RTV/DYT Cohen's d, P3h4",EV protein P3h4 (Q8K2B0),1.62
same,"RTV Corrective Direction, P3h4","EV protein P3h4 (Q8K2B0), DYT + RTV vs DYT",YES
same,"Absolute Cohen's d Sum (Geno + RTV), Pacsin3",EV protein Pacsin3 (Q99JB8),6.45
same,"DYT + RTV/DYT Cohen's d, Pacsin3",EV protein Pacsin3 (Q99JB8),−3.41
same,"RTV Corrective Direction, Pacsin3","EV protein Pacsin3 (Q99JB8), DYT + RTV vs DYT",YES
same,"Absolute Cohen's d Sum (Geno + RTV), Pcdh19",EV protein Pcdh19 (Q80TF3),7.74
same,"DYT + RTV/DYT Cohen's d, Pcdh19",EV protein Pcdh19 (Q80TF3),−0.30
same,"Absolute Cohen's d Sum (Geno + RTV), Plpp3",EV protein Plpp3 (Q99JY8),4.97
same,"DYT + RTV/DYT Cohen's d, Plpp3",EV protein Plpp3 (Q99JY8),0.51
same,"Absolute Cohen's d Sum (Geno + RTV), Rbm17",EV protein Rbm17 (Q8JZX4),7.77
same,"DYT + RTV/DYT Cohen's d, Rbm17",EV protein Rbm17 (Q8JZX4),2.38
same,"RTV Corrective Direction, Rbm17","EV protein Rbm17 (Q8JZX4), DYT + RTV vs DYT",YES
same,"Absolute Cohen's d Sum (Geno + RTV), Sbno1",EV protein Sbno1 (Q689Z5),4.67
same,"DYT + RTV/DYT Cohen's d, Sbno1",EV protein Sbno1 (Q689Z5),1.29
same,"RTV Corrective Direction, Sbno1","EV protein Sbno1 (Q689Z5), DYT + RTV vs DYT",YES
same,"Absolute Cohen's d Sum (Geno + RTV), Sec61b",EV protein Sec61b (Q9CQS8),3.57
same,"DYT + RTV/DYT Cohen's d, Sec61b",EV protein Sec61b (Q9CQS8),0.27
same,"RTV Corrective Direction, Sec61b","EV protein Sec61b (Q9CQS8), DYT + RTV vs DYT",YES
same,"Absolute Cohen's d Sum (Geno + RTV), Sh3bp4",EV protein Sh3bp4 (Q921I6),4.75
same,"DYT + RTV/DYT Cohen's d, Sh3bp4",EV protein Sh3bp4 (Q921I6),−0.91
same,"Absolute Cohen's d Sum (Geno + RTV), Srrm2",EV protein Srrm2 (Q8BTI8),7.87
same,"DYT + RTV/DYT Cohen's d, Srrm2",EV protein Srrm2 (Q8BTI8),3.51
same,"RTV Corrective Direction, Srrm2","EV protein Srrm2 (Q8BTI8), DYT + RTV vs DYT",YES
same,"Absolute Cohen's d Sum (Geno + RTV), Sumo1",EV protein Sumo1 (P63166),5.99
same,"DYT + RTV/DYT Cohen's d, Sumo1",EV protein Sumo1 (P63166),2.28
same,"RTV Corrective Direction, Sumo1","EV protein Sumo1 (P63166), DYT + RTV vs DYT",YES
same,"Absolute Cohen's d Sum (Geno + RTV), Tes",EV protein Tes (P47226),4.69
same,"DYT + RTV/DYT Cohen's d, Tes",EV protein Tes (P47226),0.20
same,"RTV Corrective Direction, Tes","EV protein Tes (P47226), DYT + RTV vs DYT",YES
same,"Absolute Cohen's d Sum (Geno + RTV), Timp3",EV protein Timp3 (P39876),7.42
same,"DYT + RTV/DYT Cohen's d, Timp3",EV protein Timp3 (P39876),−2.93
same,"RTV Corrective Direction, Timp3","EV protein Timp3 (P39876), DYT + RTV vs DYT",YES
same,"Absolute Cohen's d Sum (Geno + RTV), Tspan7",EV protein Tspan7 (Q62283),7.37
same,"DYT + RTV/DYT Cohen's d, Tspan7",EV protein Tspan7 (Q62283),−2.89
same,"Absolute Cohen's d Sum (Geno + RTV), Unc119b",EV protein Unc119b (Q8C4B4),4.63
same,"DYT + RTV/DYT Cohen's d, Unc119b",EV protein Unc119b (Q8C4B4),2.22
same,"RTV Corrective Direction, Unc119b","EV protein Unc119b (Q8C4B4), DYT + RTV vs DYT",YES
same,Pearson's r between genotype and ritonavir effects on EV protein abundance,"entire proteome, n=1974",−0.74
same,Pearson's r between genotype and ritonavir effects on EV protein abundance,"putative DYT biomarker subset, n=363",−0.78
same,"additional human plasma EV protein homologs modulated in a corrective direction in mouse DYT1 EV experiment (MEF), not reaching significance (p<0.05)",ritonavir,687
same,all EV proteins with log 2 fold change>0,"ritonavir 20 μM, 24 h",1372/1974
same,number of significant hits among 363 proteins relative to chance (α=0.05),"ritonavir 20 μM, 24 h",12 times
same,overall effect on the DYT-TOR1A MEF EV proteome,"ritonavir 20 μM, 24 h",broad corrective effect
same,significantly modified EV proteins with log 2 fold change>0,"ritonavir 20 μM, 24 h",508/582
same,overall effect on the DYT-TOR1A MEF EV proteome,"ritonavir 20 μM, 24 h, listed as Ritonavir",proteome-wide corrective effects
same,hierarchical clustering of EV samples on 363 genotype biomarker proteins,ritonavir-treated DYT-TOR1A EV samples,clustered more closely with WT than DYT-TOR1A samples
